Results from US6235791A, “Use of amines to produce drugs for preventing tumor cell proliferation” (Sanofi-Synthelabo, priority 1996, dated 2001).

Experiments:
MCF7 + E2 10-9M = assay: proliferation of mammary epithelial cells, IC50 after 6 days, with oestradiol; assay type: cell-based, human; conditions: for IC50: MCF7 + E2 10^-9M, 0.5% FCS, 6 days of treatment
Experimental: (§1) Another study was also performed in order to determine the effect of SR 31747 on the in vitro and in vivo growth of mammary and prostate epithelial tumour cells.
(§2) The study consisted in evaluating the potential antitumour activity of SR 31747 on the growth of a variety of cancerous breast epithelial lines. The study is carried out in vitro on cell cultures, as well as in vivo after inoculation of tumoral mammary lines in "nude" athymic mice.
(§3) The cell lines which were used are as follows:
(§4) The hormone-sensitive MCF-7 line originates from a pleural effusion of a breast adenocarcinoma. The antioestrogen-resistant MCF-7LY2 cells were obtained from the MCF-7LCC1 and MCF-7LCC2 lines were developed in nude mice, after inoculation of the MCF-7 cells. The two lines are oestrogen-independent. The MCF-7CC2 cells are also antioestrogen-resistant. The MCF-7AZTD5 line is derived from the MCF-7 line after stable transfection with the H-ras oncogene. The MCF-7AZTD5 cells are antioestrogen-resistant in vitro. All of these lines are maintained on DMEM/F12 (1/1, vol/vol) containing 10% decomplemented foetal calf serum and 16 ng/ml of human insulin. The MCF-7LCC2 line is cultured in the permanent presence of 10^-7 M hydroxytamoxifen. The MDA-MB231 tumoral mammary epithelial cells are oestrogen- and antioestrogen-insensitive. They are cultured in L15 medium supplemented with 10% FCS, 1% essential amino acids and 10 μg/ml of human insulin.
(§5) All the lines are maintained at 37° C. in a humid air/CO2 (95%/5%) atmosphere, except for the MDA-MB231 cells which are cultured in the absence of CO2. THe cell lines are checked regularly free of mycoplasms.
(§6) Table B--Effect of SR 31747 on the proliferation of mammary epithelial cells. Determination of the IC50 after 6 days of treatment--medium changed every 48 hours

[1] = test system: human mammary carcinoma MCF-7; assay: MTT colorimetric proliferation test, 5 days; assay type: cell-based; conditions: MCF7, 120 h, read-out: percentage of cell proliferation relative to the untreated control taken as 100%
Experimental: (§7) Among other cells used, the following lines were routinely cultured in RPMI medium supplemented with 10% foetal calf serum (FCS):
human mammary carcinoma MCF-7
(§8) The antitumour activity is measured according to the colorimetry method using MTT, 3-(4,5-dimethylthiazole-2,5-diphenyltetrazolium) bromide as described by Mosmann T., Journ. of Im. Methods; 1983, 65, 55.
(§9) This colorimetric assay makes it possible to measure quantitatively the antitumour activity of a solution containing a compound used according to the invention.
(§10) According to the procedure used, the suspended cells (such as the myeloma cells) are inoculated at 2×10^3 cells/ml in 1 ml wells in defined medium. The adherent cells (such as the MCF-7 cells) are inoculated at 5×10^4 cells/ml in 1 ml wells in RPMI medium+0.5% FCS overnight. The next day, the cell carpet is washed twice and replaced by the defined medium.
(§11) The defined medium corresponds to: RPMI+10 μg/ml insulin+10 μg/ml human transferrin.
(§12) In order to carry out this test, cells are maintained in the presence of the solution containing a compound used according to the invention for 5 days, and the MTT is then added to the culture medium.
(§13) The 5 day period which was selected corresponds to the optimum time for the activity. After culturing for 5 days, the proliferation of the cells is measured by the test described above. The optical density at 570 nm is measured. A blue coloration develops in the wells where the cells are still alive. The intensity of the coloration is proportional to the quantity of live cells.

LCC2 p26-27 (MCF-7LCC2) = assay: proliferation of mammary epithelial cells, IC50 after 6 days; assay type: cell-based, human; conditions: 6 days of treatment
Experimental: as §1, §2, §3, §4, §5, §6

293 = assay: MTT colorimetric proliferation test, 5 days; assay type: cell-based; conditions: Homo sapiens, read-out: percentage of cell proliferation relative to the untreated control taken as 100%
Experimental: as §7
human kidney carcinoma 294
as §8, §9, §10, §11, §12, §13

tumour cells = assay: biochemical and pharmacological studies illustrated above (binding and antiproliferative tests)
Experimental: The membranes were prepared as follows: 10 MCF-7 cells are homogenized for 10 seconds on a Polytron® in 10 ml of Hepes® buffer pH=7.4 containing: 210 mM D-mannitol, 70 mM sucrose, 1 mM EDTA, 0.3 mM PMSF. The homogenate is centrifuged at 650 xg for 15 minutes and the supernatant is then taken up and centrifuged for 1 at 100,000 xg. The pellet is resuspended in Tris-HCl buffer pH=7.4 at a concentration of 1 mg/ml and stored at-70° C. The total binding is carried out in a 5 ml tube into which the following are introduced:
The non-specific binding is performed by adding 25 μl of 10^-5 M SR 31747 to the above solution (final volume 250 μl) and then incubating for 30 at 25° C. The free and bound fractions are separated by placing 200 μl on a column of 1 ml of Sephadex® LH 20 and the radioactivity is then counted on the first 2 ml obtained by eluting the column with 50 mM Tris buffer ph=7.4.
The 5 day period which was selected corresponds to the optimum time for the activity. After culturing for 5 days, the proliferation of the cells is measured by the test described above. The optical density at 570 nm is measured. […] The intensity of the coloration is proportional to the quantity of live cells.

MDA-MB231 cells = assay: tumours developed in ovariectomized nude mice from MDA-MB231 cells; assay type: in vivo; conditions: 500 μg SR 31747 + E2 daily intraperitoneally, to day 92
Experimental: The inoculation and treatment of the animals were carried out as follows:
The animals used are "nude" female athymic mice, which may or may not have been ovariectomized, obtained at 4 weeks old (R. Janvier). Before inoculating the hormone-sensitive mammary cells (MCF-7, MCF-7AZTD5), the animals receive 10 μl pf ethanolic 10 ^-5 oestradiol solution applied percutaneously. The treatment is repeated three times over one week. One million cells suspended in 100 μl of PBS/Ca are inoculated subcutaneously above each of the hips. The following day, the animals receive 200 μl of injection solution (ethanol/Tween 80/physiological saline, 1/1/18, vol/vol) containing the various reactions at the predefined concentrations. The injections are made intraperitoneally and are repeated every day.
FIGS. 1 and 2 indicate the effect of SR 31747 on tumours developed in ovariectomized "nude" mice from MDA-MB231 cells.
Each mouse receives 5×10^6 MDA-MB231 cells above each hip (i.e. 2 points of inoculation per mouse). The animals are then treated daily via the intraperitoneal route and receive 500 μg SR 31747+0.003 μg E2 (20 mice). The control batch receives 0.0003 μg E2 (20 mice). The amount (as a percentage of inoculated tumours) and size of the tumours developed are determined at different times in the course of the treatment. At the end of the treatment (day 92), the animals are sacrificed and weighed. […]

Compound: CCN(C/C=C\c1ccc(C2CCCCC2)c(Cl)c1)C1CCCCC1 [SR 31747, cis-N-Cyclohexyl-N-ethyl [3-(3-chloro-4-cyclo-hexylphenyl)allyl]amine]
- IC50 (MCF7 + E2 10-9M; Homo sapiens, MCF7, 144 h): 400 nM
- IC50 (MCF7 + E2 10-9M): 300 nM
- reversal of the stimulatory action of oestradiol (MCF7 + E2 10-9M; hormone-sensitive MCF-7 line): incapable of reversing the stimulatory action of oestradiol
- activity at 10 pM ([1]; MCF-7, 10 pM): 100%
- activity at 0.0001 µM ([1]; MCF-7, 100 pM): 100%
- activity at 0.001 µM ([1]; MCF-7, 1 nM): 83%
- activity at 0.01 µM ([1]; MCF-7, 10 nM): 75%
- activity at 0.1 µM ([1]; MCF-7, 100 nM): 58%
- activity at 1 µM ([1]; MCF-7, 1 μM): 34%
- activity at 10 µM ([1]; MCF-7, 10 μM): 5%
- IC50 (LCC2 p26-27 (MCF-7LCC2); Homo sapiens, LCC2, 144 h, LCC2 p26-27, 0.1 DCC): 2 nM
- IC50 (LCC2 p26-27 (MCF-7LCC2); Homo sapiens, LCC2, 144 h, LCC2 p26-27, 5% DCC): 400 nM
- IC50 (LCC2 p26-27 (MCF-7LCC2); LCC2 p26-27, 5% DCC): 300 nM
- activity at 10 pM (293; HEK293, 120 h, 293, 10 pM): 100%
- activity at 0.0001 µM (293; HEK293, 120 h, 293, 100 pM): 84%
- activity at 0.001 µM (293; HEK293, 120 h, 293, 1 nM): 80%
- activity at 0.01 µM (293; HEK293, 120 h, 293, 10 nM): 43%
- activity at 0.1 µM (293; HEK293, 120 h, 293, 100 nM): 36%
- activity at 1 µM (293; HEK293, 120 h, 293, 1 μM): 10%
- activity at 10 µM (293; HEK293, 120 h, 293, 10 μM): 7%
- activity in the biochemical and pharmacological studies (tumour cells): best activity
- size, weight and frequency of tumours developed (MDA-MB231 cells): tendency to reduce the size, weight and frequency of tumours
